The values below are quoted from earlier work in publication PMC4728427, “Mechanism of allosteric activation of TMEM16A/ANO1 channels by a commonly used chloride channel blocker” (British Journal of Pharmacology, 2016).

Where two headings read alike, the source gives them in different places.

In one data set the test system is CaCC currents (TMEM16A). Also noted: method as in Namkung et al., 2011b. The note with it: ref Namkung et al., 2011b; read-out: EC50 activation of CaCC currents; cited from earlier work.
The test system of another data set is CFTR. Details: method as in Oh et al., 2013. The note with it: ref Oh et al., 2013; cited from earlier work.
Data set [1] concerns TMEM16A. Details: method as in Oh et al., 2013. The note with it: ref Oh et al., 2013; read-out: IC50 TMEM16A inhibition; cited from earlier work.
A further data set has as its system bestrophin 1. Details: method as in Oh et al., 2013. The note with it: ref Oh et al., 2013; cited from earlier work.
The next data set has as its system ClC‐2. Details: method as in Oh et al., 2013. The note with it: ref Oh et al., 2013; cited from earlier work.
The test system of data set [2] is TMEM16A. Details: method as in Namkung et al., 2011a. The note with it: ref Namkung et al., 2011a; read-out: IC50 TMEM16A inhibition; cited from earlier work.
The subject of data set [3] is head and neck squamous cell carcinoma. Details: method as in Duvvuri et al., 2012. The note with it: ref Duvvuri et al., 2012; cited from earlier work.

With `COCCN(C(=O)c1cc(OC)c(OC)c(OC)c1)c1nc(-c2ccccc2)cs1` [Eact], the EC50 (commonly the concentration giving half of the maximal effect) with CaCC currents (TMEM16A) is 3 to 6 µM.

In the case of `COc1cc(Nc2ccc([N+](=O)[O-])cc2C(=O)O)cc2ccccc12` [MONNA], the “interaction with CFTR” value in the data set with CFTR was “does not interact”. For the same molecule, the concentration for half-maximal inhibition (IC50) (commonly the concentration needed to halve the response being measured) in the data set on TMEM16A [1] was roughly 1 µM. Besides, the “interaction with bestrophin 1” value in the data set on bestrophin 1 was “does not interact”. Further, in the data set on ClC‐2, the “interaction with ClC‐2” value is given as “does not interact”.

As for `CCc1c(C)nc(SCC(=O)Nc2nc(-c3ccc(OC)cc3)cs2)[nH]c1=O` [T16inh‐A01], the IC50 in the data set on TMEM16A [2] is roughly 1 µM. The tumour growth result in data set [3] was “reduced tumour growth”.
